COc1cc(/C=C/C(=O)O)cc(OC)c1OC
solubility (mole fraction)
Conditions	278.15 K	283.15 K	288.15 K	293.15 K	298.15 K	303.15 K	308.15 K	313.15 K	318.15 K	323.15 K
in acetone	0.0175	0.0201	0.0232	0.0265	0.0301	0.0343	0.0391	0.044	0.0492	0.0551
in ethanol	0.00626	0.0085	0.0114	0.0153	0.0201	0.0261	0.0341	0.044	0.057	0.0725
in isopropanol	0.00465	0.0063	0.00867	0.0121	0.0163	0.0215	0.0289	0.039	0.0511	0.0665
in methanol	0.00662	0.00922	0.0127	0.0175	0.0236	0.0315	0.0417	0.0548	0.0717	0.0943
in water	4.67e-05	5.3e-05	6.05e-05	6.8e-05	7.61e-05	8.55e-05	9.58e-05	0.000107	0.000118	0.000131
